Test results published in BindingDB's records for patent US9796704 (SYMPHONY EVOLUTION, INC., 2017).

Columns and labels:
Assay in all cases: AlphaScreen Assay
[1] = target: Receptor tyrosine-protein kinase erbB-2 (Homo sapiens, UniProt P04626)
[2] = target: Vascular endothelial growth factor receptor 1 (Homo sapiens, UniProt P17948)
Ephrin type-A receptor 2 = Ephrin type-A receptor 2 (Homo sapiens, UniProt P29317)
Ephrin type-B receptor 4 = target: T1, Ephrin type-B receptor 4 (Homo sapiens, UniProt P54760)
T1 sequence (P54760 whole entry): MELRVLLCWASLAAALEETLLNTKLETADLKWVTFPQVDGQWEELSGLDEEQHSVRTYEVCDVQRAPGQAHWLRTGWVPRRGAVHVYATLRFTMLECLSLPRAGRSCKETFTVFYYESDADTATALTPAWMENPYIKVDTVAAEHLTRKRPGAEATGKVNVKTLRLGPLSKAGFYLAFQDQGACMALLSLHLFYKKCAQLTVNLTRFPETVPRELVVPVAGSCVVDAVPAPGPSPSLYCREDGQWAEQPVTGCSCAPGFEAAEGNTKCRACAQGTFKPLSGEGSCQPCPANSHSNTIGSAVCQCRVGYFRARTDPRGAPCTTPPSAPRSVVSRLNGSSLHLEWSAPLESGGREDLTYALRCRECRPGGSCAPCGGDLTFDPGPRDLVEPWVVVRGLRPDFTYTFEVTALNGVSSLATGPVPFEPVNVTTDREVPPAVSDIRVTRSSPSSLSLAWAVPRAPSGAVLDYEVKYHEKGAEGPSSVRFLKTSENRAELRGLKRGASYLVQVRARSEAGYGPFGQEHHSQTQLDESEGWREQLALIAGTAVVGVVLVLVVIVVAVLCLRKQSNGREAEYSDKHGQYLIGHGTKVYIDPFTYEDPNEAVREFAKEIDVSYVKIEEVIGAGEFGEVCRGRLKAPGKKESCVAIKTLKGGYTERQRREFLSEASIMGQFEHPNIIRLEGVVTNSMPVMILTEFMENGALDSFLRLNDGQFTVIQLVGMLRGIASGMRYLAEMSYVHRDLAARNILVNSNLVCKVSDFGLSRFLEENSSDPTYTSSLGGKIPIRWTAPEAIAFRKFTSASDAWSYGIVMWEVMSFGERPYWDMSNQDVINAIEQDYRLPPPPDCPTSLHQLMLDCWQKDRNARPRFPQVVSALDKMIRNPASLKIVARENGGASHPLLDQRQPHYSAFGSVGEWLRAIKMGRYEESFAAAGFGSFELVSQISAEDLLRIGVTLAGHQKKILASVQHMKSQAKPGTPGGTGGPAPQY

[3] = target: Vascular endothelial growth factor receptor 2 (Homo sapiens, UniProt P35968)
Sequence of Vascular endothelial growth factor receptor 2 (P35968 whole entry): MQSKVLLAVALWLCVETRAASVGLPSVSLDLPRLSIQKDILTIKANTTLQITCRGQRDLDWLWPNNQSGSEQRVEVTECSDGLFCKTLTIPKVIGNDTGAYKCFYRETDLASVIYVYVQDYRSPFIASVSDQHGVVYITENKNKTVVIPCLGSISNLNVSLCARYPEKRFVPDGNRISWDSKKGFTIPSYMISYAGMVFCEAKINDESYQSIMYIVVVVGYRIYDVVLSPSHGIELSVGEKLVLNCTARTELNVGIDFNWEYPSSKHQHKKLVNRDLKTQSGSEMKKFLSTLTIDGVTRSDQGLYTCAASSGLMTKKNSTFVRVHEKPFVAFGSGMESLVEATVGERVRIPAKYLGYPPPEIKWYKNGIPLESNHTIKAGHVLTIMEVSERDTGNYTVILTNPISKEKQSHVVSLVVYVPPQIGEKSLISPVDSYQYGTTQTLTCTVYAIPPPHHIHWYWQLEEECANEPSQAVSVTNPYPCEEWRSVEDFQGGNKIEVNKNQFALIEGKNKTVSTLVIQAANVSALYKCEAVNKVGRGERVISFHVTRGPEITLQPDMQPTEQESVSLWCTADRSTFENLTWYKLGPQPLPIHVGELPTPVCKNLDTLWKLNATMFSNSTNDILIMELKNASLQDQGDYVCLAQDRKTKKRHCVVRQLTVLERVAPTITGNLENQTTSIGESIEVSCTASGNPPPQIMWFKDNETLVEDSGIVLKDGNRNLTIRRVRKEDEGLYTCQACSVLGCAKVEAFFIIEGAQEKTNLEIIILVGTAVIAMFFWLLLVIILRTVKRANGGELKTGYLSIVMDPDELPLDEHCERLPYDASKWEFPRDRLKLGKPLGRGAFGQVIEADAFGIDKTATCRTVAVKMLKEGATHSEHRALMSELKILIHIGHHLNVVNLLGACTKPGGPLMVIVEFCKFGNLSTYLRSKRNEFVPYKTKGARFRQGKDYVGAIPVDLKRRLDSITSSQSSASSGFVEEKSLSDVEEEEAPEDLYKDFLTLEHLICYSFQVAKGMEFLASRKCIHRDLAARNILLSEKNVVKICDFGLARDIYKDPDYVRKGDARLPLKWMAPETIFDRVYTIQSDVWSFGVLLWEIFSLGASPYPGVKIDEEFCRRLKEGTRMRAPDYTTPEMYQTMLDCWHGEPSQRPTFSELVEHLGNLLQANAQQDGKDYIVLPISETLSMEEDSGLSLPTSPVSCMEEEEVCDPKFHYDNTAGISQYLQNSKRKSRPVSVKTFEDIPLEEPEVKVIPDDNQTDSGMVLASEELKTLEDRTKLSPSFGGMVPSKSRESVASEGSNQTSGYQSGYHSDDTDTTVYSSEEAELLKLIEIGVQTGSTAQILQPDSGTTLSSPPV

Sequence of Vascular endothelial growth factor receptor 1 (P17948 whole entry): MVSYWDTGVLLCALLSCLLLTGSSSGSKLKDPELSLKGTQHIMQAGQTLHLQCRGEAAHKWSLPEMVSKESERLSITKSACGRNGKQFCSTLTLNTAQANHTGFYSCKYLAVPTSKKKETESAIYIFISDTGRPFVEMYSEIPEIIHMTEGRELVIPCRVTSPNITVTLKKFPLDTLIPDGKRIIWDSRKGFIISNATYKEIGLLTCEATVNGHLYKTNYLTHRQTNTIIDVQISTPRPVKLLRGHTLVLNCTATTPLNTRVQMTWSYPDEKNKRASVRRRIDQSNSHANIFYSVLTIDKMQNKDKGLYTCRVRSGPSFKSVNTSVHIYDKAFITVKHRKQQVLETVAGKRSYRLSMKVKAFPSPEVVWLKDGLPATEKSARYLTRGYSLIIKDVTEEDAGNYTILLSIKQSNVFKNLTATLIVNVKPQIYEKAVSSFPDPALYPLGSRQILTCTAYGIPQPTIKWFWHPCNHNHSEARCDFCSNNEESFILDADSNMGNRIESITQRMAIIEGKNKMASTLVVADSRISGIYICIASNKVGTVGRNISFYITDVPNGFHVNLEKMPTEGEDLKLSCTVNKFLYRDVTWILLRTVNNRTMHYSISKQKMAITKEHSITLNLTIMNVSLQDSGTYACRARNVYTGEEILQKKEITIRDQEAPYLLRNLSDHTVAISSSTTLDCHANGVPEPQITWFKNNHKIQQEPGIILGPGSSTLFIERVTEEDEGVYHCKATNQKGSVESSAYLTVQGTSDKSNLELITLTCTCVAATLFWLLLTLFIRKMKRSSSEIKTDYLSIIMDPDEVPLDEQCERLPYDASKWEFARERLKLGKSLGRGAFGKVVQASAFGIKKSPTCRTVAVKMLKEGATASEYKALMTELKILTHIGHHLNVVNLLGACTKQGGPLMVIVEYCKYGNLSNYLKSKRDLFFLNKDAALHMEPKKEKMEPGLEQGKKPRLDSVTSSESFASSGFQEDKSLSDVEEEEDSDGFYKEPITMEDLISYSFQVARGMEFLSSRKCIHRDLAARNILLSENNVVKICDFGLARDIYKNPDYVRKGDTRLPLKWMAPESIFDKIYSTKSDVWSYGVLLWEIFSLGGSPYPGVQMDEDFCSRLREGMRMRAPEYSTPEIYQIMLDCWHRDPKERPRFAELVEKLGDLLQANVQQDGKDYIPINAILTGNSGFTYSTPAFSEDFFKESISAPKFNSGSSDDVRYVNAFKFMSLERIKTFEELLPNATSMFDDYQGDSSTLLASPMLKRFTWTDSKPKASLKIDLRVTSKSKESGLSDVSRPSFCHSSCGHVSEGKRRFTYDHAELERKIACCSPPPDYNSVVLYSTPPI
Sequence of Ephrin type-A receptor 2 (P29317 whole entry): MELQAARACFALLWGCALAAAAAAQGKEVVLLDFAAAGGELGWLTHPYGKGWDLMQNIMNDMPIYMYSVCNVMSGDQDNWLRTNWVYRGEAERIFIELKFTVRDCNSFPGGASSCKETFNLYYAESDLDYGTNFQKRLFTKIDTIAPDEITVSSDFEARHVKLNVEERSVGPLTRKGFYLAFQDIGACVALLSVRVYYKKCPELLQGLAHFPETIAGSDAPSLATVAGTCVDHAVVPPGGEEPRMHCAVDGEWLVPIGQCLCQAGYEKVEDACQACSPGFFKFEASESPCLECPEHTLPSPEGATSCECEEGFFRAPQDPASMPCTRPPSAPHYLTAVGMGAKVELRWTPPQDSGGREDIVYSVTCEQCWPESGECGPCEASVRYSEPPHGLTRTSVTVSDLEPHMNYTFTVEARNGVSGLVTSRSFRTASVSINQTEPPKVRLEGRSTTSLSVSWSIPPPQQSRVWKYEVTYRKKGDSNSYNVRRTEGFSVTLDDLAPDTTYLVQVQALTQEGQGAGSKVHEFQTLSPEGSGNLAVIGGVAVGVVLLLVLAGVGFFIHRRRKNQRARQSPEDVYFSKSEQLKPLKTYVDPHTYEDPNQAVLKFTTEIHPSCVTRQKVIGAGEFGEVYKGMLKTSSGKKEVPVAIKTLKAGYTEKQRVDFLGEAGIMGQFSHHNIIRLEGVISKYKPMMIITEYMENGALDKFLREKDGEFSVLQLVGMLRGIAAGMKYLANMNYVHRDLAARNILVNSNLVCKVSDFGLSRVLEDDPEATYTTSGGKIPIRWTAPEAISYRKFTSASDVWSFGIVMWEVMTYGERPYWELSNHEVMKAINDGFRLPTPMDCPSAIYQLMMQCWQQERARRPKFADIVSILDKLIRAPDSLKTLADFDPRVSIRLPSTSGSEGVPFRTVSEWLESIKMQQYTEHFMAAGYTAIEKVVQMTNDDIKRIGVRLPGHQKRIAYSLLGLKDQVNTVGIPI
Sequence of Receptor tyrosine-protein kinase erbB-2 (P04626 whole entry): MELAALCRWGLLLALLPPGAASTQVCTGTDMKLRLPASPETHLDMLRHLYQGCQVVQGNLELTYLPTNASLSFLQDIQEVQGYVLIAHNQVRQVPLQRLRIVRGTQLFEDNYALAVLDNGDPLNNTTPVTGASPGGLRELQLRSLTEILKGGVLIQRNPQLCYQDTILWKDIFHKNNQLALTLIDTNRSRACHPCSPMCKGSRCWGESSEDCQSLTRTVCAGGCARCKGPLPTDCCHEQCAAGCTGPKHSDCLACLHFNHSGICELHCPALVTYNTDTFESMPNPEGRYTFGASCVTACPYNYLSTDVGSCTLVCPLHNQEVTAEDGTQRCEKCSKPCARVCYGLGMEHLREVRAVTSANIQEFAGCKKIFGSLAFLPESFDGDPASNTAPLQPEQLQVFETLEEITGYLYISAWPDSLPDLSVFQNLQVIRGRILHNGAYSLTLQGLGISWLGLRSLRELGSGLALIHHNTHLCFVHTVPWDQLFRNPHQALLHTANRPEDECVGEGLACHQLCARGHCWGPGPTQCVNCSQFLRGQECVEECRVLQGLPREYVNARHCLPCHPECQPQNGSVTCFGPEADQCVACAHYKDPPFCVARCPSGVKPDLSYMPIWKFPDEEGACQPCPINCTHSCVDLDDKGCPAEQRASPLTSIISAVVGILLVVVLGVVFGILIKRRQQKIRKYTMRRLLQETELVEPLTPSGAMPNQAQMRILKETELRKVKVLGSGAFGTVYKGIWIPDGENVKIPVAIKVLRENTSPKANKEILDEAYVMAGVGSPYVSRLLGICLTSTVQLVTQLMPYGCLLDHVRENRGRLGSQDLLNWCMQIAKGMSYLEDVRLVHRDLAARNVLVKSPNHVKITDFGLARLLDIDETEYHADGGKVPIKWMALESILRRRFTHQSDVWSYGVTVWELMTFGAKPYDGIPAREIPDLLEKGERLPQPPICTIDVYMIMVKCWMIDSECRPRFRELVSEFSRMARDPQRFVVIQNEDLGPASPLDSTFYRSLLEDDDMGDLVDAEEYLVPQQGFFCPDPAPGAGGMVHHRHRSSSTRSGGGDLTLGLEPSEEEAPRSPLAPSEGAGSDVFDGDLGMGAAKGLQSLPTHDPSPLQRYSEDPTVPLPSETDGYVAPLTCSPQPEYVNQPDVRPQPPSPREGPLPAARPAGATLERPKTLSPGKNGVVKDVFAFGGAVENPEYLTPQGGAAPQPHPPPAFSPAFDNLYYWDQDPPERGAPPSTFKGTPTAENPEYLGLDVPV

| SMILES | IC50 [1] | IC50 [2] | IC50 (Ephrin type-A receptor 2) | IC50 (Ephrin type-B receptor 4) | IC50 [3] |
| --- | --- | --- | --- | --- | --- |
| COc1cc2c(Nc3ccc(Cl)c(Cl)c3F)ncnc2cc1OC[C@@H]1C[C@@H]2CN(C(C)C)C[C@@H]2C1 [US9796704, Entry 1] | < 50 nM | in the range around 525 nM |  |  |  |
| COc1cc2c(Nc3ccc(Br)c(Cl)c3F)ncnc2cc1OC[C@@H]1C[C@@H]2CN(S(C)(=O)=O)C[C@@H]2C1 [US9796704, Entry 6] | in the range around 525 nM |  | in the range around 525 nM | < 50 nM | in the range around 525 nM |
| COc1cc2c(Nc3ccc(Cl)c(Cl)c3F)ncnc2cc1OC[C@H]1C[C@@H]2CN(C)C[C@@H]2C1 [US9796704, Entry 9] | in the range around 525 nM |  | in the range around 525 nM | in the range around 525 nM | in the range around 525 nM |
| COc1cc2c(Nc3ccc(Br)c(Cl)c3F)ncnc2cc1OC[C@H]1C[C@@H]2CN(C)C[C@@H]2C1 [US9796704, Entry 10] | in the range around 525 nM | in the range around 525 nM |  |  |  |
| COc1cc2c(Nc3ccc(F)c(Cl)c3F)ncnc2cc1OC[C@H]1C[C@@H]2CN(C)C[C@@H]2C1 [US9796704, Entry 11] | in the range around 525 nM | in the range around 525 nM |  |  |  |
| COc1cc2c(Nc3cc(Cl)c(Cl)cc3F)ncnc2cc1OC[C@H]1C[C@@H]2CN(C)C[C@@H]2C1 [US9796704, Entry 12] | < 50 nM | < 50 nM |  |  |  |
| COc1cc2c(Nc3cc(Cl)c(Br)cc3F)ncnc2cc1OC[C@H]1C[C@@H]2CN(C)C[C@@H]2C1 [US9796704, Entry 13] | < 50 nM | < 50 nM |  |  |  |
| COc1cc2c(Nc3ccc(Br)c(Cl)c3Cl)ncnc2cc1OC[C@H]1C[C@@H]2CN(C)C[C@@H]2C1 [US9796704, Entry 14] | in the range around 525 nM | in the range around 525 nM |  |  |  |
| COc1cc2c(Nc3ccc(Cl)c(Cl)c3)ncnc2cc1OC[C@H]1C[C@@H]2CN(C)C[C@@H]2C1 [US9796704, Entry 15] | < 50 nM | in the range around 525 nM |  |  |  |
| CCN1C[C@H]2C[C@@H](COc3cc4ncnc(Nc5ccc(Br)c(Cl)c5F)c4cc3OC)C[C@H]2C1 [US9796704, Entry 16] | in the range around 525 nM | in the range around 525 nM | in the range around 525 nM |  | in the range around 525 nM |
| COc1cc2c(Nc3ccc(Br)c(Cl)c3F)ncnc2cc1OC[C@@H]1C[C@@H]2CN(CC(C)C)C[C@@H]2C1 [US9796704, Entry 17] | in the range around 10500 nM | in the range around 525 nM | in the range around 525 nM |  | in the range around 525 nM |
| COc1cc2c(Nc3ccc(Br)c(Cl)c3Cl)ncnc2cc1OC[C@@H]1CN2CCOCC2CO1 (stereo partly drawn) [US9796704, Entry 27] | in the range around 525 nM | < 50 nM |  |  |  |
| COc1cc2c(Nc3ccc(Cl)c(Cl)c3)ncnc2cc1OC[C@@H]1CN2CCC[C@H]2CO1 [US9796704, Entry 34] | < 50 nM |  | in the range around 525 nM | in the range around 525 nM | in the range around 525 nM |
| COc1cc2c(Nc3ccc(Cl)c(Cl)c3)ncnc2cc1OC[C@H]1CN2CCC[C@H]2CO1 [US9796704, Entry 35] | in the range around 525 nM |  | in the range around 525 nM | in the range around 525 nM |  |
| COc1cc2c(Nc3ccc(Cl)c(Cl)c3)ncnc2cc1OCCNC1CC2CCC(C1)N2C (stereo not drawn) [US9796704, Entry 55] | in the range around 525 nM | in the range around 10500 nM | in the range around 10500 nM |  |  |
| COc1cc2c(Nc3ccc(Cl)c(Cl)c3)ncnc2cc1OCC1CC2CCC(C1)N2C (stereo not drawn) [US9796704, Entry 58] |  | in the range around 10500 nM |  |  |  |
| COc1cc2c(Nc3ccc(Cl)c(Cl)c3)ncnc2cc1OC1CC2CCC(C1)N2C (stereo not drawn) [US9796704, Entry 60] | in the range around 525 nM | in the range around 525 nM | in the range around 10500 nM |  | in the range around 10500 nM |

The next lines start with the values.

| IC50 [1] | IC50 [2] | IC50 (Ephrin type-A receptor 2) | IC50 (Ephrin type-B receptor 4) | IC50 [3] | SMILES |
| --- | --- | --- | --- | --- | --- |
| in the range around 525 nM | in the range around 525 nM |  |  |  | COc1cc2c(Nc3cc(Cl)c(Br)cc3F)ncnc2cc1OCC1CO[C@@H]2[C@@H](OC)CO[C@H]12 (stereo partly drawn) [US9796704, Entry 41] |
| in the range around 10500 nM | in the range around 525 nM |  |  |  | COc1cc2c(Nc3ccc(Br)c(Cl)c3F)ncnc2cc1OCC1CO[C@@H]2[C@@H](OC)CO[C@H]12 (stereo partly drawn) [US9796704, Entry 44] |
|  | in the range around 10500 nM | in the range around 10500 nM |  | in the range around 10500 nM | COc1cc2c(Nc3ccc(Cl)c(Cl)c3F)ncnc2cc1OC[C@@H]1CN2CCC[C@H]2C(=O)N1 [US9796704, Entry 51] |
|  | in the range around 10500 nM | in the range around 10500 nM |  | in the range around 10500 nM | COc1cc2c(Nc3ccc(Cl)c(Cl)c3F)ncnc2cc1OC[C@@H]1CN2CCC[C@@H]2C(=O)N1 [US9796704, Entry 52] |
|  | in the range around 10500 nM | in the range around 10500 nM |  | in the range around 10500 nM | COc1cc2c(Nc3ccc(Cl)c(Cl)c3)ncnc2cc1OCC1CN2CSC[C@H]2CO1 (stereo partly drawn) [US9796704, Entry 56] |
| in the range around 10500 nM | > 20000 nM |  |  | > 20000 nM | COc1cc2c(Nc3ccc(Br)c(Cl)c3Cl)ncnc2cc1O[C@H]1CO[C@H]2[C@@H]1OC[C@@H]2OC [US9796704, Entry 66] |
| in the range around 525 nM |  | in the range around 525 nM | in the range around 525 nM | in the range around 525 nM | COc1cc2c(Nc3ccc(F)c(F)c3)ncnc2cc1O[C@@H]1CO[C@@H]2[C@H]1OC[C@H]2F [US9796704, Entry 111] |
| in the range around 10500 nM |  | in the range around 10500 nM | in the range around 525 nM | in the range around 10500 nM | CCN1CCCC1c1noc(COc2cc3ncnc(Nc4ccc(Cl)c(Cl)c4)c3cc2OC)n1 (stereo not drawn) [US9796704, Entry 255] |
| in the range around 10500 nM |  | in the range around 10500 nM | in the range around 525 nM | in the range around 10500 nM | CCN1CCCC1c1nc(COc2cc3ncnc(Nc4ccc(Cl)c(Cl)c4)c3cc2OC)cs1 (stereo not drawn) [US9796704, Entry 256] |
| in the range around 10500 nM |  | in the range around 10500 nM | in the range around 10500 nM | in the range around 10500 nM | C=CCCCCN1CCOC(COc2cc3ncnc(Nc4ccc(Cl)c(Cl)c4)c3cc2OC)C1 (stereo not drawn) [US9796704, Entry 274] |
| in the range around 10500 nM |  | in the range around 10500 nM | in the range around 10500 nM | in the range around 10500 nM | COC(=O)CCN1CCOC(COc2cc3ncnc(Nc4ccc(Cl)c(Cl)c4)c3cc2OC)C1 (stereo not drawn) [US9796704, Entry 276] |
